# Test: method code SF-AS, from DOI: 10.1111/j.2042-7158.1992.tb14369.x, PMID: 1350635
# Settings: pH 13.0
row,SMILES,logD
1,CNC(=O)COc1ccccc1OCC(O)CNC(C)(C)C (configuration not stated),1.36
2,CC(=O)Nc1ccc(OCC(O)CNC(C)C)c(C(C)=O)c1 (configuration not stated),0.94
3,CC(C)NC[C@H](O)COc1ccc(OCCOCCc2ccc(F)cc2)cc1,3.7
4,COc1ccccc1OCC(O)CNC(C)C (configuration not stated),1.69
5,CC(C)NCC(O)COc1ccccc1C1CC2CCC1C2 (configuration not stated),4.17
6,CC(C)NCC(O)COc1ccc(COCCOC(C)C)cc1 (configuration not stated),1.87
7,Cc1cc2c(OCC(O)CNC(C)C)cccc2[nH]1 (configuration not stated),2.3
8,CC(C)NCC(O)COc1ccc(CCOCC2CC2)cc1 (configuration not stated),2.81
9,C#CCOc1ccccc1OCC(O)CNC(C)(C)C (configuration not stated),2.32
10,CC(=O)c1cc2cccc(OCC(O)CNC(C)C)c2o1 (configuration not stated),2.02
11,CC(C)NCC(O)COc1ccccc1C1CC1 (configuration not stated),3.07

# Test: method code SF, from DOI: 10.1111/j.2042-7158.1992.tb14369.x, PMID: 1350635
# Settings: pH 13.0
row,SMILES,logD
1,CC(C)(C)NCC(O)COc1ccccc1C#N (configuration not stated),1.97

# Reference: the SangsterLogP compilation
